The source of these data is article PMC2993763 (Journal of natural products, 2010).

Assay [1] deals with HT-29 human colon cancer cell line. Briefly: Cytotoxicity assay. It is filed as cell-based. As to conditions: HT-29 cells, three days incubation, SRB stain. (The SRB assay estimates cell density from bound dye.)
Assay [2] has as its system P-388 lymphocytic leukemia. The following applies: administered both ip and iv; cited from earlier work.
The conditions of assay [3]: cited from earlier work.

The structures appear in SMILES notation. “And” between values parts separate entries of the source, which are not always exact repeats. Equal values may be shown once.

For `COC(=O)[C@H]1[C@@H](O)[C@@]2(O)c3c(OC)cc(O[C@@H]4O[C@@H]([C@@H](O)CO)CO[C@H]4OC)cc3O[C@@]2(c2ccc(OC)cc2)[C@@H]1c1ccccc1` [Compound 8, episilvestrol (5‴-epi-silvestrol)], the “ED50, cytotoxicity HT-29” value in assay [1] stood at 0.001 µM.

Take `COC(=O)[C@H]1[C@@H](O)[C@@]2(O)c3c(OC)cc(O[C@@H]4O[C@@H]([C@H](O)CO)CO[C@H]4OC)cc3O[C@@]2(c2ccc(OC)cc2)[C@@H]1c1ccccc1` [Compound 7, silvestrol]: in assay [1], the “ED50, cytotoxicity HT-29” value was 0.0007 µM. For the same compound, the “activity in the P-388 lymphocytic leukemia test system in vivo” value in assay [2] is on record as “showed activity”. In addition, in assay [3], the “activity in the in vivo hollow fiber assay” value is on record as “active”.

With `COC(=O)[C@H]1[C@@H](O)[C@@]2(O)c3c(OC)cc(O[C@@H]4O[C@@H]([C@@H](O)CO)CO[C@@H]4OC)cc3O[C@@]2(c2ccc(OC)cc2)[C@@H]1c1ccccc1` [Compound 2, 2‴,5‴-diepi-silvestrol], in assay [1], the “ED50, cytotoxicity HT-29” value was 1.1 µM and 1.07 µM.

On to `COC(=O)[C@H]1[C@@H](O)[C@@]2(O)c3c(OC)cc(O[C@@H]4O[C@@H]([C@H](O)CO)CO[C@@H]4OC)cc3O[C@@]2(c2ccc(OC)cc2)[C@@H]1c1ccccc1` [Compound 1, 2‴-epi-silvestrol], for which the “ED50, cytotoxicity HT-29” value in assay [1] was 2.3 µM and 2.29 µM.
